Reference: US10508120B2, “TYK2 inhibitors and uses thereof” (Nimbus Lakshmi, Inc., priority 2017, dated 2019)
Where two headings read alike, the source gives them in different places.

Assays:
[1] = target: human TYK2 (JH2domain-pseudokinase) (Homo sapiens (Human), UniProt P29597); assay: TYK2 JH2 Domain Binding Assay (KINOMEscan)
Outline: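 Pseudokinase domain binding was measured by qPCR of tagged, bead-retained kinase after 1 h room-temperature competition, with 0.9% DMSO and compound up to 30,000 nM in 3-fold steps. Hill-equation Kd, duplicate.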

Tyk2 kinase domain (DH1) = Tyk2 kinase domain (DH1) (Homo sapiens (Human), UniProt P29597); assay: Tyk2 Radioactive Kinase Assay; assay type: biochemical; conditions: for inhibition at 10 µM: read-out: Tyk2 JH1% Inhibition @ 10 μM
Tyk2 kinase domain (DH1), sequence (P29597 897-1176): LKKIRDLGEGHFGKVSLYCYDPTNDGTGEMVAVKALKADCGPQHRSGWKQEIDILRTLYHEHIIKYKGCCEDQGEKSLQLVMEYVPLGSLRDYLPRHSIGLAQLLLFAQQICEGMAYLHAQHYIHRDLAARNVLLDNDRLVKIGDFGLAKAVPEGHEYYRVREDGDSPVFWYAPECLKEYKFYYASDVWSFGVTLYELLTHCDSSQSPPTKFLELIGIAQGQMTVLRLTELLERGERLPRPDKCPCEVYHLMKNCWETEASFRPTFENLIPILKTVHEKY
Outline: (§1)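 Compounds were tested at a single concentration of 10 μM in a radiometric kinase format against each isolated kinase domain. Activity is reported as percent inhibition at that concentration.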

JAK2 kinase domain (JH1) = JAK2 kinase domain (JH1) (Homo sapiens (Human), UniProt O60674); assay: JAK2 Radioactive Kinase Assay; assay type: biochemical; conditions: for inhibition at 10 µM: read-out: JAK2 JH1% Inhibition @ 10 μM
JAK2 kinase domain (JH1), sequence (O60674 849-1124): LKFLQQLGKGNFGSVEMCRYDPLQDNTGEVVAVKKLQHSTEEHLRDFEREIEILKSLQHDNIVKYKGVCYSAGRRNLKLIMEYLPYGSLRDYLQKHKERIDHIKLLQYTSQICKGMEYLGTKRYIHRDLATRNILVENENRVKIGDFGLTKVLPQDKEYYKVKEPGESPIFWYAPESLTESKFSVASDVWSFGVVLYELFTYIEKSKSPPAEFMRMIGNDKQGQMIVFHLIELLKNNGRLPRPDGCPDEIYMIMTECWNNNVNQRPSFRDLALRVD
Outline: as §1

human TYK2 (JH2domain-pseudokinase), sequence (P29597 556-888): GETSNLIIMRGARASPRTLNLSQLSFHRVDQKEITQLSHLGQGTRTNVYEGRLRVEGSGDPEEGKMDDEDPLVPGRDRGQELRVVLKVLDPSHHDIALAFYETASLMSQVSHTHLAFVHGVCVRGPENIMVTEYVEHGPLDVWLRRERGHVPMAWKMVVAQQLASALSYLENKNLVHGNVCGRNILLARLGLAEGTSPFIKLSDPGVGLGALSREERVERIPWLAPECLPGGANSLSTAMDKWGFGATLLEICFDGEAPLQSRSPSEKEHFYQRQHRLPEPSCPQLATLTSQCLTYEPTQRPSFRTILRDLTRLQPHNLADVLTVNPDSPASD

Structure (SMILES)	Kd [1]	inhibition at 10 µM (Tyk2 kinase domain (DH1); 10 μM compound, 10 μM ATP)	inhibition at 10 µM (JAK2 kinase domain (JH1); 10 μM compound, 10 μM ATP)	further results
CNc1cc(Nc2cc(Cl)cn([C@H]3CCCOC3)c2=O)nc2c(C(=O)N[C@H]3[C@@H]4COC[C@@H]43)cnn12 [I-800]	0.2 to 1 nM	–	–	inhibition at 10 µM (Tyk2 kinase domain (DH1); compound at 10 μM, ATP 10 μM): < 50%; inhibition at 10 µM (JAK2 kinase domain (JH1); compound at 10 μM, ATP 10 μM): < 50%
CNc1cc(Nc2cccn([C@H]3CC[C@@H]3O)c2=O)nc2c(C(=O)NC3CC3)cnn12 [I-801]	0.2 to 1 nM	–	–	inhibition at 10 µM (Tyk2 kinase domain (DH1); compound at 10 μM, ATP 10 μM): < 50%; inhibition at 10 µM (JAK2 kinase domain (JH1); compound at 10 μM, ATP 10 μM): < 50%
CNc1cc(Nc2cccn(-c3cnn(C)c3F)c2=O)nc2c(C(=O)NC3CC3)cnn12 [I-808]	< 0.2 nM	< 50%	< 50%	–
CNc1cc(Nc2cccn(-c3cnco3)c2=O)nc2c(C(=O)N[C@H]3CC[C@H]3O)cnn12 [I-809]	0.2 to 1 nM	–	–	Tyk2 JH1% Inhibition @ 10 μM (Tyk2 kinase domain (DH1); 10 μM compound, 10 μM ATP): A (percent inhibition at 10 μM lower than 50); JAK2 JH1% Inhibition @ 10 μM (JAK2 kinase domain (JH1); 10 μM compound, 10 μM ATP): A (percent inhibition at 10 μM lower than 50)
CNc1cc(Nc2cccn([C@H]3[C@@H]4COC[C@@H]43)c2=O)nc2c(C(=O)NC3CC3)cnn12 [I-810]	< 0.2 nM	< 50%	< 50%	–
CNc1cc(Nc2cccn(-c3cccnc3C)c2=O)nc2c(C(=O)N[C@@H]3C[C@@H]3F)cnn12 [I-813]	0.2 to 1 nM	< 50%	< 50%	–
CNc1cc(Nc2cccn([C@@H]3CCC[C@@H](O)C3)c2=O)nc2c(C(=O)NC3CC3)cnn12 [I-822]	< 0.2 nM	< 50%	< 50%	–
CNc1cc(Nc2cccn([C@H]3CC[C@H](OC)CC3)c2=O)nc2c(C(=O)N[C@@H]3COC[C@@H]3O)cnn12 [I-831]	< 0.2 nM	< 50%	< 50%	–
CNc1cc(Nc2cccn([C@H]3CC[C@H](OC)CC3)c2=O)nc2c(C(=O)N[C@H]3COC[C@H]3O)cnn12 [I-832]	1 to 10 nM	< 50%	< 50%	–
CNc1cc(Nc2cccc3ocnc23)nc2c(C(=O)N[C@@H]3COC[C@@H]3O)cnn12 [I-833]	> 10 nM	< 50%	< 50%	–

The next lines start with results.

Kd [1]	inhibition at 10 µM (Tyk2 kinase domain (DH1); 10 μM compound, 10 μM ATP)	inhibition at 10 µM (JAK2 kinase domain (JH1); 10 μM compound, 10 μM ATP)	Structure (SMILES)	further results
0.2 to 1 nM	–	–	CNc1cc(Nc2cccn([C@H]3CCCOC3)c2=O)nc2c(C(=O)N[C@@H]3CC[C@@H]3O)cnn12 [I-804]	Tyk2 JH1% Inhibition @ 10 μM (Tyk2 kinase domain (DH1); compound at 10 μM, ATP 10 μM): A (percent inhibition at 10 μM lower than 50); JAK2 JH1% Inhibition @ 10 μM (JAK2 kinase domain (JH1); compound at 10 μM, ATP 10 μM): A (percent inhibition at 10 μM lower than 50)
0.2 to 1 nM	–	–	CNc1cc(Nc2cccn(-c3ccccn3)c2=O)nc2c(C(=O)N[C@@H]3CC[C@@H]3O)cnn12 [I-806]	Tyk2 JH1% Inhibition @ 10 μM (Tyk2 kinase domain (DH1); compound at 10 μM, ATP 10 μM): A (percent inhibition at 10 μM lower than 50); JAK2 JH1% Inhibition @ 10 μM (JAK2 kinase domain (JH1); compound at 10 μM, ATP 10 μM): A (percent inhibition at 10 μM lower than 50)
0.2 to 1 nM	–	–	CNc1cc(-c2cn(CCN3CCOCC3)c3ncccc23)nc2c(C(=O)NCC3(CO)CC3)cnn12 [I-807, N-((1-(hydroxymethyl)cyclopropyl)methyl)-7-(methylamino)-5-(1-(2-morpholinoethyl)-1H-pyrrolo[2,3-b]pyridin-3-yl)pyrazolo[1,5-a]pyrimidine-3-carboxamide]	inhibition at 10 µM (Tyk2 kinase domain (DH1); compound at 10 μM, ATP 10 μM): < 50%; inhibition at 10 µM (JAK2 kinase domain (JH1); compound at 10 μM, ATP 10 μM): < 50%
1 to 10 nM	< 50%	< 50%	CNc1cc(Nc2cccn(-c3cccnc3C)c2=O)nc2c(C(=O)NC3CC3)cnn12 [I-812]	–
0.2 to 1 nM	< 50%	< 50%	CNc1cc(-c2cn(CCN3CCOCC3)c3ncccc23)nc2c(C(=O)NCC(C)(C)CO)cnn12 [I-818, N-(3-hydroxy-2,2-dimethylpropyl)-7-(methylamino)-5-(1-(2-morpholinoethyl)-1H-pyrrolo[2,3-b]pyridin-3-yl)pyrazolo[1,5-a]pyrimidine-3-carboxamide]	–
0.2 to 1 nM	< 50%	< 50%	CNc1cc(Nc2cccn([C@H]3CCN(C)CC3(F)F)c2=O)nc2c(C(=O)NC3CC3)cnn12 [I-823]	–
0.2 to 1 nM	< 50%	< 50%	CNc1cc(Nc2cccn([C@@H]3CCN(C)CC3(F)F)c2=O)nc2c(C(=O)NC3CC3)cnn12 [I-824]	–
< 0.2 nM	< 50%	< 50%	CNc1cc(Nc2cccn([C@H]3CC[C@H](OC)CC3)c2=O)nc2c(C(=O)NC[C@@H](C)CO)cnn12 [I-830]	–
0.2 to 1 nM	< 50%	< 50%	CNc1cc(-c2cn(CCN3CCOCC3)c3ncccc23)nc2c(C(=O)N[C@H]3CC[C@@H]3O)cnn12 [I-836]	–
< 0.2 nM	< 50%	< 50%	CNc1cc(-c2cn(CCN3CCCCC3)c3ncccc23)nc2c(C(=O)N[C@H]3CC[C@@H]3O)cnn12 [I-838]	–
